EC50 data for two compounds are collected here from US20100292231A1, “Indazole Compounds for Treating Inflammatory Disorders, Demyelinating Disorders and Cancers” (priority 2007, published 2010).

Broadly, the EC50 is the concentration giving half of the maximal effect.

Holding throughout (experiment): SelectScreen kinase specificity survey
What all share (format): biochemical
Common to all, as to conditions: estimated, abridged dose response curve, read-out: Kinase inhibitory activity EC50

In assay [1] the target is T1, ABL1 Y253F (Homo sapiens, UniProt P00519, Y253F).
T1 construct: purchased Invitrogen (SelectScreen platform)
As to the method:
(§1) Testing of the compounds described in this invention was carried out using the SelectScreen™ platform from Invitrogen, Inc. (Carlsbad. Calif., USA) and the details of its performance are readily viewed via the web by linking to: http://www.invitrogen.com/downloads/SelectScrn_Brochure.pdf.
(§2) Briefly, the approach is based on treating each specific kinase with a unique substrate and optical reporter system in the presence of ATP at 100 micromolar. In controls, the substrate is phosphorylated and a baseline optimal response is recorded.
(§3) The compounds were then re-tested by adding graded amounts of putative inhibitor which were added in 5 separate increments to generate a dose response curve. The latter is obtained by fitting to a 4 parameter Hill equation, a sigmoid saturation equation.
(§4) The same assay system described in Example 2 can be applied in the determination of kinase specificity. It is well understood by medicinal chemists in the development of kinase inhibitors that the resulting molecules often lack specificity. Not only are homologous kinases inhibited by the same class of compounds, but also non-homologous kinases can be affected by allosteric, induced, activated vs inactivated conformation, and protein folding interactions with the putative inhibitor, which otherwise had been designed to be specific. These off target effects are difficult to predict and can only be ruled in or out by empirically surveying a large set of kinases. It is also understood that changes to scaffolds and variation in their chemical decorations may influence the extent of promiscuity in the patterns of kinase inhibition across kinase classes.
(§5) The following experiment was conducted to address this issue. The indazole compound (IV), described in Example 2 and representative of the new genus was tested along with Symadex against a panel of 230 kinases representative of all known kinases classes. Included in the survey were the Flt3, its mutant, and close relatives in the Class III receptor tyrosine kinase class, together with serine-threonine kinases and atypical kinases many of which share no homology of active site with Flt3 as shown, for example, in the respective “genecard” for each kinase and available for inspection at on the web at http://www.genecards.org/.
(§6) Table 3 lists the estimated EC50 values from an abridged dose response curve for Symadex (C-1311) and CF-123. The kinases are listed alphabetically by Group and Family.

Assay [2] addresses T2, AURKA (Aurora A) (Homo sapiens, UniProt O14965).
T2 construct: purchased Invitrogen, Inc. (SelectScreen service)
As to the method: as §1, §2, §3, §4, §5, §6

Assay [3] concerns the target T3, CAMK2A (CaMKII alpha) (Homo sapiens, UniProt Q9UQM7).
T3 construct: purchased Invitrogen, Inc. (SelectScreen platform)
As to the method:
as §1, §2, §3, §4, §5, §6

For assay [4], the target named is T4, CAMK4 (CaMKIV) (Homo sapiens, UniProt Q16566).
T4 construct: purchased Invitrogen, Inc. (SelectScreen platform)
As to the method: as §1, §2, §3, §4, §5, §6

The target of assay [5] is T5, CDC42 BPB (MRCKB) (Homo sapiens, UniProt Q9Y5S2).
T5 construct: purchased Invitrogen (SelectScreen platform)
The method, then: as §1, §2, §3, §4, §5, §6

In assay [6] the target is T6, CLK3 (Homo sapiens, UniProt P49761).
T6 construct: purchased Invitrogen (SelectScreen platform)
As to the method: as §1, §2, §3, §4, §5, §6

Assay [7] concerns the target T7, IGF1R (Homo sapiens, UniProt P08069).
T7 construct: purchased Invitrogen (SelectScreen platform)
The method, then:
as §1, §2, §3, §4, §5, §6

Assay [8] deals with T8, IRAK4 (Homo sapiens, UniProt Q9NWZ3).
T8 construct: purchased Invitrogen, Inc. (SelectScreen platform)
The method, then: as §1, §2, §3, §4, §5, §6

Assay [9] concerns the target T9, JAK1 (Homo sapiens, UniProt P23458).
T9 construct: purchased Invitrogen (SelectScreen platform)
The method, then:
as §1, §2, §3, §4, §5, §6

For assay [10], the target named is T10, MAPK9 (JNK2) (Homo sapiens, UniProt P45984).
T10 construct: purchased Invitrogen, Inc. (SelectScreen service)
As to the method:
as §1, §2, §3, §4, §5, §6

The target of assay [11] is T11, MAPKAPK2 (Homo sapiens, UniProt P49137).
T11 construct: purchased Invitrogen, Inc. (SelectScreen platform)
The method, then:
as §1, §2, §3, §4, §5, §6

Assay [12] addresses T12, PAK6 (Homo sapiens, UniProt Q9NQU5).
T12 construct: purchased Invitrogen (SelectScreen platform)
The method, then:
as §1, §2, §3, §4, §5, §6

The target in assay [13] is T13, PHKG2 (Homo sapiens, UniProt P15735).
T13 construct: purchased Invitrogen, Inc. (SelectScreen platform)
The method, then:
as §1, §2, §3, §4, §5, §6

Assay [14] addresses T14, SRMS (Srm) (Homo sapiens, UniProt Q9H3Y6).
T14 construct: purchased Invitrogen (SelectScreen)
The method, then:
as §1, §2, §3, §4, §5, §6

The target in assay [15] is T15, STK24 (MST3) (Homo sapiens, UniProt Q9Y6E0).
T15 construct: purchased Invitrogen (SelectScreen platform)
As to the method: as §1, §2, §3, §4, §5, §6

Assay [16] has as its target T16, STK4 (MST1) (Homo sapiens, UniProt Q13043).
T16 construct: purchased Invitrogen (SelectScreen platform)
As to the method: as §1, §2, §3, §4, §5, §6

T7 sequence (P08069 31-1367): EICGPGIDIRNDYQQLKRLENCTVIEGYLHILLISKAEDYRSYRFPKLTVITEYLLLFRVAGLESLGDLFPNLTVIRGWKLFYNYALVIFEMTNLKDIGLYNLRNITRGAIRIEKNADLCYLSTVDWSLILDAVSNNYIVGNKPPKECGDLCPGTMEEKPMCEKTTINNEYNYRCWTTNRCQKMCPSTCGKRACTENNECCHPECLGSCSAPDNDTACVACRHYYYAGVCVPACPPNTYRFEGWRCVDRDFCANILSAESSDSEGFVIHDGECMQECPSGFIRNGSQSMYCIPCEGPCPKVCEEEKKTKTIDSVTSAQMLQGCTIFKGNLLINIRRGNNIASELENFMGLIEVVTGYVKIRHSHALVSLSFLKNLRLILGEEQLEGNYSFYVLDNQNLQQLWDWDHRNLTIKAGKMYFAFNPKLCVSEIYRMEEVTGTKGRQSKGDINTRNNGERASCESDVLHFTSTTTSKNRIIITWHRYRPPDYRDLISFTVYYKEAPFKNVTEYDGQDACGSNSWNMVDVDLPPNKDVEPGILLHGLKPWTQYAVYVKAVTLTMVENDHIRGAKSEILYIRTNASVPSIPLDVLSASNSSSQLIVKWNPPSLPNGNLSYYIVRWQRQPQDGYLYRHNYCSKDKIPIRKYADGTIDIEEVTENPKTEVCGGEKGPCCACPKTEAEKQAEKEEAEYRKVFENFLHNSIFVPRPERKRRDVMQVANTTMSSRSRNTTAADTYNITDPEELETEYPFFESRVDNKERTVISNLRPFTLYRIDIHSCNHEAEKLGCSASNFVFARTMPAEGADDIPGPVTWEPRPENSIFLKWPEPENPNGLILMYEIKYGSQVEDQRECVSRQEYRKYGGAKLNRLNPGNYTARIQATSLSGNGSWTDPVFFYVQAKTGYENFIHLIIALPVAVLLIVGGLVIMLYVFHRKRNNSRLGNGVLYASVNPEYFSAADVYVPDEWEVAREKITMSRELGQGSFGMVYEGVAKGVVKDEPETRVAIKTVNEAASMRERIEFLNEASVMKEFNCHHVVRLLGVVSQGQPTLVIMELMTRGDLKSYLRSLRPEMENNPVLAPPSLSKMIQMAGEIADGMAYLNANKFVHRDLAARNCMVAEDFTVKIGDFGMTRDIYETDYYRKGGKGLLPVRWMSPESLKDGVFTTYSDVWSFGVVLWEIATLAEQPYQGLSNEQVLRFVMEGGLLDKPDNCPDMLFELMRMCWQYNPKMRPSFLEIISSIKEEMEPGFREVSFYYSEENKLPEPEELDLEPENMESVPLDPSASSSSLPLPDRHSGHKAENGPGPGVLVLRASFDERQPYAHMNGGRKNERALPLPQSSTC
T8 sequence (Q9NWZ3 whole entry): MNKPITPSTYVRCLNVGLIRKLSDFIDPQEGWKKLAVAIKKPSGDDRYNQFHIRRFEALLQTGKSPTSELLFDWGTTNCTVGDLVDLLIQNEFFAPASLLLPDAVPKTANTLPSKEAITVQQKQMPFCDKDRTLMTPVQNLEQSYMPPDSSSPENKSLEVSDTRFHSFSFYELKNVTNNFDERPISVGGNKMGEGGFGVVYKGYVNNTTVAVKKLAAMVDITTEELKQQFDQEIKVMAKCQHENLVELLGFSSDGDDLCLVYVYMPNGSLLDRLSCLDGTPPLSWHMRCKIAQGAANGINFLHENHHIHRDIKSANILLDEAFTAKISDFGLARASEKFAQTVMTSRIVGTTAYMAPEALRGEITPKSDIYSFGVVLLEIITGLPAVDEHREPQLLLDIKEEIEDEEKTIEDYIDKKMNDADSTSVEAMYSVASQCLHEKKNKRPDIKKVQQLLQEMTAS
T13 sequence (P15735 whole entry): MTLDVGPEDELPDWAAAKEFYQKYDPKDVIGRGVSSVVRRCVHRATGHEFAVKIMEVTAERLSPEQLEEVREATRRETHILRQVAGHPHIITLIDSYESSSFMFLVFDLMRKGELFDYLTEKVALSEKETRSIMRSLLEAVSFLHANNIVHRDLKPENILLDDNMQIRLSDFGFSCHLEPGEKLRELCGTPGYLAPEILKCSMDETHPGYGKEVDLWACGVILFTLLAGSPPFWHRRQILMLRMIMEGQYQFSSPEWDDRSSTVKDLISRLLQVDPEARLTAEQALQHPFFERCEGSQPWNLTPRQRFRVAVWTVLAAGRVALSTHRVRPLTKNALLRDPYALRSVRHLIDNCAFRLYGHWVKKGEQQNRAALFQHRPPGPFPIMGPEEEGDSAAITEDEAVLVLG
T6 sequence (P49761 whole entry): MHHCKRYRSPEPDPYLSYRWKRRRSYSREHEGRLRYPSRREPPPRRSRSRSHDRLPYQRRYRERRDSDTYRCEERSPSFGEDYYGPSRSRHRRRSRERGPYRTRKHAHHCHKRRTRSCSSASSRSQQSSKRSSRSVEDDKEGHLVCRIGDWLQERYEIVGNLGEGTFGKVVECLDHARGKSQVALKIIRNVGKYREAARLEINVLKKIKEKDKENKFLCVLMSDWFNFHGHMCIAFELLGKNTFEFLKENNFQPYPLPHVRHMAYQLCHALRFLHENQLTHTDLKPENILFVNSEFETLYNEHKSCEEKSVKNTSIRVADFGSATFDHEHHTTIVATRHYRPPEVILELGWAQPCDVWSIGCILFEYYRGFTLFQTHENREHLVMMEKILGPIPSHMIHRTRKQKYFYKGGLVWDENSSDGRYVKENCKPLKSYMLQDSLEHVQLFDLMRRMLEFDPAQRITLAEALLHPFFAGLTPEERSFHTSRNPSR
T16 sequence (Q13043 whole entry): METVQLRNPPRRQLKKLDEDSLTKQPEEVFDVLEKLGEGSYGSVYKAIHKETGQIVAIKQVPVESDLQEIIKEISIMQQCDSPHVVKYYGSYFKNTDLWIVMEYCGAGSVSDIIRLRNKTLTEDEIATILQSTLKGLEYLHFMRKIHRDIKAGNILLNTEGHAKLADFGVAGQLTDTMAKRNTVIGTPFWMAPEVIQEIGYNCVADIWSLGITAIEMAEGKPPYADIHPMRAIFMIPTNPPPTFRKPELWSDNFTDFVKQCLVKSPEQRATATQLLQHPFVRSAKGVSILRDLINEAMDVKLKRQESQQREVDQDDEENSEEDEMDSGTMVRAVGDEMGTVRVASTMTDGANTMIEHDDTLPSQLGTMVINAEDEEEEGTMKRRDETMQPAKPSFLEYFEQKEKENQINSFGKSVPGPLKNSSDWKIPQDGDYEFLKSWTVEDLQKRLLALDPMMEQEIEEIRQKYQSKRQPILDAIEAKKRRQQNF
T12 sequence (Q9NQU5 whole entry): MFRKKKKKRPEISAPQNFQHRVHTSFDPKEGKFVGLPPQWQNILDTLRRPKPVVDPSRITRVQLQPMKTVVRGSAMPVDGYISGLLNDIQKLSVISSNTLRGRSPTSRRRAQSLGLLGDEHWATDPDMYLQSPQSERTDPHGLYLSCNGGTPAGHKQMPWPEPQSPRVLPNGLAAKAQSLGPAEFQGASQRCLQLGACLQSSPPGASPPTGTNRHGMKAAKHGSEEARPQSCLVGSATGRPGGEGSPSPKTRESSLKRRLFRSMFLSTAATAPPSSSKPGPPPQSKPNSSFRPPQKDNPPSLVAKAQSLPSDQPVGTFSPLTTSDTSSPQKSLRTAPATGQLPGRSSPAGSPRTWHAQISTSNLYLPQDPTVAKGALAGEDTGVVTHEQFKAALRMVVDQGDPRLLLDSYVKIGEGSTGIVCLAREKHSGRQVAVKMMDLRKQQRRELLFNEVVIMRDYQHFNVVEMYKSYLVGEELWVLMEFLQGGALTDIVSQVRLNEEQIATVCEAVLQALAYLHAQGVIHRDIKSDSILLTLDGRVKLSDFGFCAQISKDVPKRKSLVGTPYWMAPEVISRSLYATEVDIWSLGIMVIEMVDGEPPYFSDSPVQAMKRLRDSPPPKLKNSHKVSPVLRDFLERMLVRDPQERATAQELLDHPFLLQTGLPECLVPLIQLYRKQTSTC
T2 sequence (O14965 whole entry): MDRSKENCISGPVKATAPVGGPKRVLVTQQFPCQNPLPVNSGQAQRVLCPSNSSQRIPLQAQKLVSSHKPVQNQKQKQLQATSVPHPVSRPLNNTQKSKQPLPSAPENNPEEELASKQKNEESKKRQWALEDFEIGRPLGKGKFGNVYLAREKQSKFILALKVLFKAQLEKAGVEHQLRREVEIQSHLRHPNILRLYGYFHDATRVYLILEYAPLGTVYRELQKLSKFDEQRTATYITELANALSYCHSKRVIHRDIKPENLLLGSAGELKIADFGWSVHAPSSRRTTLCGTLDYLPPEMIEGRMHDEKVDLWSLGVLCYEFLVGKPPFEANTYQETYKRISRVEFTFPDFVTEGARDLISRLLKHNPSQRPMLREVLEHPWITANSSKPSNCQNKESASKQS
T10 sequence (P45984 whole entry): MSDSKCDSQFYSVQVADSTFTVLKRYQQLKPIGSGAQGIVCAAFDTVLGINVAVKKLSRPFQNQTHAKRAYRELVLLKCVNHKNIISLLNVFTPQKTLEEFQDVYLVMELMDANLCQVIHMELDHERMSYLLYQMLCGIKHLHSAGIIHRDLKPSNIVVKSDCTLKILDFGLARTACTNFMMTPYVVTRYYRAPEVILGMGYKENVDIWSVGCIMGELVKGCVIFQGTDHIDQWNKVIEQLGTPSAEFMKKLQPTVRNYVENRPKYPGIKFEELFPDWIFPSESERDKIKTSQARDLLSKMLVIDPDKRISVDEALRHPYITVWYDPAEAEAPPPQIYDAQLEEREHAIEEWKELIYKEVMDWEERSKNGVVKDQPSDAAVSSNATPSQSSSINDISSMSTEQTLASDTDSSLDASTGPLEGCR

With `CN(C)CCCNc1ccc2ncn3c4ccc5[nH]ncc5c4c(=O)c1c23` [Compound (IV)], the EC50 in assay [1] was 2.52 µM; in assay [2], more than 5 µM; in assay [3], 789 nM; in assay [4], more than 5 µM; in [5], 3.63 µM; in [6], more than 5 µM. Also, the EC50 was 1560 nM in assay [7]; 3320 nM in assay [8]; more than 5 µM in assay [9]; more than 5 µM in [10]; more than 5 µM in assay [11]; more than 5 µM in assay [12]. Besides, the EC50 in [13] was 3.72 µM; in assay [14], more than 5 µM; in assay [15], 1040 nM; in assay [16] it was 2170 nM.
Regarding `CCN(CC)CCNc1ccc2ncn3c4ccc(O)cc4c(=O)c1c23` [Symadex, 5-(2-(diethylamino)ethylamino)-8-hydroxy-6H-imidazo[4,5,1-de]acridin-6-one, reference compound], the EC50 in assay [1] was 4.49 µM; in assay [2] it was more than 5 µM; in assay [3] it was more than 5000 nM; in assay [4] it was more than 5 µM; in assay [5], more than 5 µM; in assay [6], more than 5 µM. The EC50 was more than 5000 nM in [7]; 847 nM in assay [8]; more than 5 µM in assay [9]; more than 5 µM in [10]; more than 5 µM in assay [11]; more than 5 µM in assay [12]. The EC50 is more than 5 µM in assay [13], more than 5 µM in assay [14], 733 nM in assay [15] and more than 5000 nM in [16].
